These results are taken from PMC11920646 (Frontiers in Pharmacology, 2025).

Experiment [1] has as its system IFN-γ release in human whole blood. Set-up: method as in Hu et al., 2011. The settings on record: at concentrations each of 100–1000 nM ref Hu et al., 2011; cited from earlier work.
The target in experiment [2] is T1, human GR (Homo sapiens, UniProt P04150).
T1 construct: host or cells: CHO (DSMZ ACC-110), CHO-Gal4/GR
T1 sequence (P04150 524-758 limits assumed): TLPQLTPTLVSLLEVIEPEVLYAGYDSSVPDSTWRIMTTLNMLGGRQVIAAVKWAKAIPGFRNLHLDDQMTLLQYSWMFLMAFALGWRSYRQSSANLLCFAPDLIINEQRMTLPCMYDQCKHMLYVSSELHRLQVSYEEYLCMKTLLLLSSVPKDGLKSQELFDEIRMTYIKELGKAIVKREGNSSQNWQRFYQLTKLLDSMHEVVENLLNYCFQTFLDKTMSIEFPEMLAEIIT
Kind of experiment: GR reporter gene (transactivation) assay, CHO-Gal4/GR. Format: cell-based. Particulars: % of reference agonist beclomethasone. An excerpt:
To create the CHO-Gal4/GR, CHO-Gal4/PR, and CHO-Gal4/MR reporter cell lines, first CHO cells were stably transfected with a GAL4-UAS-luciferase reporter construct. Then, the LBD of the GR, PR, or MR (GR Gene ID: 2908, PR Gene ID: 5241, MR Gene ID: 4306, respectively) was cloned into pIRES2-EGFP-GAL4 containing the DBD of GAL4 from pFA-AT2, and then co-transfected into the luciferase-reporter construct-containing CHO cells. These reporter cell lines express the respective nuclear hormone receptor LBD-DBD fusion proteins that control luciferase expression of a GAL4-upstream activation sequence (UAS)-luciferase reporter construct, allowing for detection of ligand- or compound-induced transactivation at the GR, PR, or MR by measuring luciferase activity.
Cryo-preserved CHO-Gal4/GR, CHO-Gal4/PR, and CHO-Gal4/MR cells were plated in medium at 7,500 cells/well in 384-well assay plates (25 μL/well), and incubated for 24 h. […] Following a 4-h incubation, cells were lysed and luminescence measured using the EMCCD camera FLIPR®Tetra (Molecular Devices, Silicon Valley, CA, United States).
Transactivation (i.e., gene activation) was expressed as a percentage of the reference agonist activity (Supplementary Material), using Genedata Screener® v15.0.5 software (Basel, Switzerland).
Transactivation was calculated according to this equation: […]

Experiment [3] addresses T2, human progesterone receptor (PR) (Homo sapiens, UniProt P06401).
T2 sequence (P06401 636-933 limits assumed): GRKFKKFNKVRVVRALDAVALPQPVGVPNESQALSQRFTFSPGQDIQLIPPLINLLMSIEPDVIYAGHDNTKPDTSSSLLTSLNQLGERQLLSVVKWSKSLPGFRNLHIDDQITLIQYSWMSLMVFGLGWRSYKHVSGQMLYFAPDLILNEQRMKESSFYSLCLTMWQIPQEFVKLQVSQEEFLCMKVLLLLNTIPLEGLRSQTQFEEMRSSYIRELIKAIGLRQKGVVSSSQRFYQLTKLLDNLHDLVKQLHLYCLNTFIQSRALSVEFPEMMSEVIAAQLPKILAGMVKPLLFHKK
In words: Human PR radioligand binding (3H-progesterone, T47D cells). Particulars: read-out: inhibition of 3H-progesterone binding; footnote: at 10 µM. The method, then:
Scintillation counting of bound radioligand was conducted after 6 and 20 h of incubation (at 4°C), respectively. […] Scintillation counting of bound radioligand was conducted after 20 h of incubation at 4°C.
The same statistical methods were used for the MR binding assays, but using MathIQ™ software (ID Business Solutions Ltd., Woking, United Kingdom).
Percent inhibition of control specific binding was calculated as follows: […]
The half-maximal inhibitory concentration (IC50; i.e., the concentration causing a half-maximal inhibition of control specific binding) and Hill coefficients (nH) were determined by non-linear regression analysis of the competition curves generated with mean replicate values using the following Hill equation curve fitting: Y=D+ A-D1+ C/C50nH , where Y = specific binding, A = left asymptote of the curve, D = right asymptote of the curve, C = compound concentration, C50 = IC50, and nH = slope factor.
The inhibition constants (Ki) were calculated using the Cheng Prusoff equation:
where L = concentration of radioligand employed in the assay, and KD = affinity of the radioligand for the receptor (a Scatchard plot was used to determine the KD) (Cheng and Prusoff, 1973).

Values joined by “and” are separate entries in the source; they are usually repeats but may differ in a detail not shown here. Identical values can stand only once.

By inhibition is commonly meant the percentage by which the read-out fell short of the control.

Consider `C[C@]12C=CC(=O)C=C1CC[C@@H]1[C@@H]2[C@@H](O)C[C@@]2(C)[C@H]1CC[C@]2(O)C(=O)CO` [Prednisolone], for which, in experiment [1], the “inhibition of IFN-γ release in human whole blood” value is given as 85–100%. The “GR transactivation, mean activation (efficacy)” value in experiment [2] was 80.5% and 80.5 ± 2.2%. The inhibition at 10 µM in experiment [3] lay within 12.1 to 30.7%.
